What was measured:
[1] = test system: skin tumor formation induced by DMBA and TPA; experiment: Two-stage mouse skin carcinogenesis model (DMBA/TPA); assay type: in vivo, ICR mice
Text: The chemoprotective effect of xanthorrhizol and the methanolic extract of Curcuma xanthorrhiza Roxb. against tumor formation was investigated in multistage mouse carcinogenesis induced by tumor initiator (DMBA) and tumor promoter (TPA).
To evaluate the inhibitory effect of xanthorrhizol and the methanolic extract of Curcuma xanthoffhiza Roxb. against tumor formation, 30 mice (6 weeks age, female) per an experimental group was used. The dorsal region of ICR mice was shaved with an electric clipper. After a topical application of 0.2 μmol DMBA in 0.2 ml acetone, mice were treated topically with xanthorrhizol or the methanolic extract of Curcuma xanthorrhiza 30 min prior to each topical application of 10 nmol TPA in 0.2 ml acetone which was continued three times weekly for 19 weeks. The negative control was treated with only 0.2 ml acetone. Tumors were counted and recorded biweekly. The results were expressed as the average number of tumors per mouse (tumor multiplicity) and the percentage of tumor-bearing mice (tumor incidence) and are shown at FIG. 3 and FIG. 4. […] FIG. 4 is a photograph representing the inhibitory effect of xanthorrhizol against tumor formation at 19 weeks.

COX-2 = experiment: Inhibition of COX-2 expression induced by TPA in mouse skin (western blotting); assay type: in vivo, ICR mice; conditions: topical pretreatment 30 min before TPA 10 nmol; skin taken 4 hr later
Description: It is known that the expression of COX-2 increases in mouse skin treated with TPA. Therefore, the effect of xanthorrhizol on COX-2 expression induced by TPA was measured as follows on the basis of this fact.
Female ICR mice of about 5 weeks of age were purchased from the Daehan Experimental Animal Center (Seoul, Korea). Mice were kept on a 12 h light/dark cycle.
The dorsal region of mice was shaved with an electric clipper. 2 days later, xanthorrhizol dissolved in 0.2 ml acetone was topically applied on mouse skin followed by topical application of TPA (10 nmol) dissolved in 0.2 ml acetone after 30 min. Mice were sacrificed by cervical dislocation 4 hr later. The skin was excised and the fat was removed. Fat-free skin was immediately placed in liquid nitrogen and pulverized in mortar.
Pulverized mouse skin was lysed in 400 μl of lysis buffer [150 mM NaCl, 0.5% Triton X-100, 50 mM tris-HCl, pH 7.4, 20 mM EGTA, 1 mM DTT, 1 mM Na3VO4, protease inhibitor cocktail tablet] for 30 min on ice. Lysates were centrifuged and total protein in supernatant was quantified by Bio-Rad protein assay. Aliquots of supernatant containing 30 μg protein were boiled in SDS sample loading buffer for 5 min before electrophoresis on a 12% SDS-polyacrylamide gel. […]

HL-60 cells [2] = experiment: Apoptosis morphology in HL-60 cells (Hoechst 33258 staining, fluorescence microscopy); assay type: cell-based, Human; conditions: xanthorrhizol 40 μM, 24 hr
Description: Human promyelocytic leukemia (HL-60) cells were maintained at 37° C. in a humidified atmosphere of 95% air and 5% CO2 in RPMI 1640 supplemented with 10% (v/v) heat-inactivated fetal bovine serum (FBS). HL-60 cells were cultured in 6-well plate in RPMI 1640 medium containing 10% FBS in the absence or presence of the methanolic extract of Curcuma xanthorrhiza (15 μg/ml) and xanthorrhizol (40 μM) and centrifuged after 24 hr. 4% neutral buffered formaline was added to the cell and the mixture was transferred to slides, which were left at room temperature for dryness. The fixed cells were washed in PBS, air-dried and stained with DNA-specific fluorochrome Hoechest 33258 for 1 min. The adhered cells were washed with PBS, air dried, and mounted with 50% glycerol. The slides were observed by fluorescence microscopy.

HL-60 cells [3] = experiment: Flow cytometric cell cycle analysis of HL-60 cells (sub-G1 phase); assay type: cell-based, Human; conditions: 24 hours, control 20%
Description: The effect of xanthorrhizol on cell cycle was examined by flow cytometric analysis. HL-60 cells were cultured in serum-free RPMI 1640 medium for 48 hr to stop cell cycle at GO phase. The medium was exchanged to 10% FBS-RPMI 1640 media with 0, 20, 60 μM of xanthorrhizol, respectively. 24 hours later, the cells obtained after centrifugation were fixed in 70% ethanol at −20° C. overnight. The cells were washed twice again with PBS, and incubated with 100 U/ml of Rnase at 37° C. for 1 hr. The cell pellet was resuspended in propidium iodide solution after washing twice with PBS. The cells were analyzed by flow cytometry and the result was represented at FIG. 11.

## CC(C)=CCC[C@@H](C)c1ccc(C)c(O)c1 [xanthorrhizol]
[1]; 6 μmol topical, three times per week for 19 weeks, DMBA/TPA control 15.5
  average number of skin tumors per mouse (tumor multiplicity): 4.0 skin tumors per mouse
[1]; 6 μmol topical, three times per week for 19 weeks, all DMBA/TPA control mice had tumors
  percentage of tumor-bearing mice (tumor incidence): 57%
[1]; topical application 30 min prior to each TPA, three times weekly for 19 weeks
  tumor formation: inhibits tumor formation dose-dependently
COX-2
  expression of COX-2 induced by TPA: decreased by pretreatment with xanthorrhizol in a dose-dependent manner
HL-60 cells [2]
  morphological characteristics of apoptosis: distinct chromatin condensation and nuclear fragmentation
HL-60 cells [3]; 20 μM
  proportion of cells in sub-G1 phase (apoptosis peak): 36%
HL-60 cells [3]; 60 μM
  proportion of cells in sub-G1 phase (apoptosis peak): 76%

From patent US20050261162A1, “Pharmaceutical composition for preventing and treating cancer and treating an inflammation” (priority 2001, published 2005)
